According to patent US7638639B2, “Substituted pyrrolidine and related compounds” (Theravance, Inc., priority 2003, dated 2009):

What was measured:
[1] = target: T1, hM2 muscarinic receptor subtype (Homo sapiens, UniProt P08172); assay: Radioligand binding assay ([3H]-NMS displacement), hM2
T1 construct: expressed in transfected cells
T1 sequence (P08172 1-466): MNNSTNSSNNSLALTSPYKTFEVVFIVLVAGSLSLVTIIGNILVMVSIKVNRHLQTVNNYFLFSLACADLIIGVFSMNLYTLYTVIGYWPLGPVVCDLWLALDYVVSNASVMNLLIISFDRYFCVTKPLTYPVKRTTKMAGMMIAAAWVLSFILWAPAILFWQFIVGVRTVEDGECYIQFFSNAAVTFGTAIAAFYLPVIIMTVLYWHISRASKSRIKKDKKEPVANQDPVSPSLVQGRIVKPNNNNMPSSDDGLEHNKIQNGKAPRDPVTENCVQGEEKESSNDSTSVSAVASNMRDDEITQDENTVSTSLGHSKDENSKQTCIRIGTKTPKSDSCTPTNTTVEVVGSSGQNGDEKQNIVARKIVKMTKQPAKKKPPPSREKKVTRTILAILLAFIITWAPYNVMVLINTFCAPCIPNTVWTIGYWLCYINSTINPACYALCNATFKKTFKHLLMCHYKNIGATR
Protocol: A. Membrane Preparation from Cells Expressing hM1, hM2, hM3 and hM4 Muscarinic Receptor Subtypes
CHO (Chinese hamster ovary) cell lines stably expressing cloned human hM1, hM2, hM3 and hM4 muscarinic receptor subtypes, respectively, were grown to near confluency in medium consisting of HAM's F-12 supplemented with 10% FBS (Fetal Bovine Serum) and 250 μg/mL Geneticin. The cells were grown in a 5% CO2, 37° C. incubator and lifted with 2 mm EDTA in dPBS. Cells were collected by 5 minute centrifugation at 650×g, and cell pellets were either stored frozen at −80° C. or membranes were prepared immediately. For membrane preparation, cell pellets were resuspended in lysis buffer and homogenized with a Polytron PT-2100 tissue disrupter (Kinematica AG; 20 seconds×2 bursts). Crude membranes were centrifuged at 40,000×g for 15 minutes at 4° C. The membrane pellet was then resuspended with resuspension buffer and homogenized again with the Polytron tissue disrupter. The protein concentration of the membrane suspension was determined by the method described in Lowry, O. et al., 1951, […]: 193, 265. All membranes were stored frozen in aliquots at −80° C. or used immediately. Aliquots of prepared hM5 receptor membranes were purchased directly from Perkin Elmer and stored at −80° C. until use.
B. Radioligand Binding Assay on Muscarinic Receptor Subtypes hM1, hM2, hM3, hM4 and hM5
Radioligand binding assays were performed in 96-well microtiter plates in a total assay volume of 100 μL. CHO cell membranes stably expressing either the hM1, hM2, hM3, hM4 or hM5 muscarinic subtype were diluted in assay buffer to the following specific target protein concentrations (μg/well): 10 μg for hM1, 10-15 μg for hM2, 10-20 μg for hM3, 10-20 μg for hM4, and 10-12 μg for hM5. The membranes were briefly homogenized using a Polytron tissue disruptor (10 seconds) prior to assay plate addition. Saturation binding studies for determining KD values of the radioligand were performed using L-[N-methyl-3H]scopolamine methyl chloride ([^3H]-NMS) (TRK666, 84.0 Ci/mmol, Amersham Pharmacia Biotech, Buckinghamshire, England) at concentrations ranging from 0.001 nM to 20 nM. Displacement assays for determination of Ki values of test compounds were performed with [^3H]-NMS at 1 nM and eleven different test compound concentrations. The test compounds were initially dissolved to a concentration of 400 μM in dilution buffer and then serially diluted 5× with dilution buffer to final concentrations ranging from […] to […]. The addition order and volumes to the assay plates were as follows: 25 μL radioligand, 25 μL diluted test compound, and 50 μL membranes. Assay plates were incubated for 60 minutes at 37° C. Binding reactions were terminated by rapid filtration over GF/B glass fiber filter plates (PerkinElmer Inc., Wellesley, Mass.) pre-treated in 1% BSA. Filter plates were rinsed three times with wash buffer (10 mm HEPES) to remove unbound radioactivity. Plates were then air dried, and 50 μL Microscint-20 liquid scintillation fluid (PerkinElmer Inc., Wellesley, Mass.) was added to each well. The plates were then counted in a PerkinElmer Topcount liquid scintillation counter (PerkinElmer Inc., Wellesley, Mass.). Binding data were analyzed by nonlinear regression analysis with the GraphPad Prism Software package (GraphPad Software, Inc., San Diego, Calif.) using the one-site competition model. Ki values for test compounds were calculated from observed IC50 values and the KD value of the radioligand using the Cheng-Prusoff equation (Cheng Y; Prusoff W H. (1973) Biochemical Pharmacology, 22(23):3099-108). Ki values were converted to pKi values to determine the geometric mean and 95% confidence intervals. These summary statistics were then converted back to Ki values for data reporting.

[2] = target: T2, hM2 receptor (Homo sapiens, UniProt P08172); assay: Blockade of agonist-mediated [35S]GTPγS binding; format: biochemical; settings: CHO-K1 cells expressing the hM2 receptor; read-out: Ki for blockade of oxotremorine-stimulated [35S]GTPγS binding
T2 construct: expressed in transfected cells
T2 sequence (P08172 1-466): T1 sequence (P08172 1-466)
Protocol: B. Blockade of Agonist-Mediated GTPγ[^35S] Binding
In a second functional assay, the functional potency of a test compound is determined by measuring the ability of the compound to block oxotremorine-stimulated [^35S]GTPγS binding in CHO-K^1 cells expressing the hM2 receptor. At the time of use, frozen membranes were thawed and then diluted in assay buffer with a final target tissue concentration of 5-10 μg protein per well. The membranes were briefly homogenized using a Polytron PT-2100 tissue disrupter and then added to the assay plates.
The EC90 value (effective concentration for 90% maximal response) for stimulation of [^35S]GTPγS binding by the agonist oxotremorine was determined in each experiment.
The assay plates were then incubated at 37° C. for 60 minutes. The assay plates were filtered over 1% BSA-pretreated GF/B filters using a PerkinElmer 96-well harvester. The plates were rinsed with ice-cold wash buffer for 3×3 seconds and then air or vacuum dried. Microscint-20 scintillation liquid (50 μL) was added to each well, and each plate was sealed and radioactivity counted on a topcounter (PerkinElmer). Data were analyzed by nonlinear regression analysis with the GraphPad Prism Software package (GraphPad Software, Inc., San Diego, Calif.) using the non-linear regression, one-site competition equation. […]

CNCCCCCCCCN1CC[C@@H](C(C(N)=O)(c2ccccc2)c2ccccc2)C1 [Example 1, 2-[(S)-1-(8-Methylaminooctyl)pyrrolidin-3-yl]-2,2-diphenylacetamide]
Ki ([1]; CHO cell membranes, [3H]-NMS 1 nM, read-out: hM2 binding affinity (Ki)): 3.8 nM | Δ hM2: change in binding affinity relative to compound of the invention ([1]; ratio of hM2 Ki values): ×4.7 | Ki [2]: < 5 nM
